Results published in patent US20260285850A1, “SUBSTITUTED OXAZOLIDINONES AND IMIDAZOLINONES AS HERBICIDES” (FMC CORPORATION, priority 2023, published 2026).

How the values were obtained:
Assay type in all cases: in vivo
[1] = tested on: barnyardgrass (Echinochloa crusgalli); assay: Test B flooded paddy test, visual plant response rating 0-100; settings: 250 g ai/ha, Flood, applied to paddy water, evaluated after 13 days
Outline: (§1)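 Compounds applied to standing paddy water (3 cm above soil, maintained for the test duration) on 2-leaf-stage plants; visual rating vs controls at 13 days, greenhouse.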

[2] = tested on: ducksalad (Heteranthera limosa); assay: as above; settings: 250 g ai/ha, Flood, applied to paddy water, evaluated after 13 days
Outline: as §1

[3] = tested on: sedge, umbrella (small-flower umbrella sedge, Cyperus difformis); assay: as above; settings: 250 g ai/ha, Flood, applied to paddy water, evaluated after 13 days
Outline: as §1

[4] = tested on: rice (Oryza sativa); assay: as above; settings: 250 g ai/ha, Flood, applied to paddy water, evaluated after 13 days
Outline: as §1

[5] = tested on: barnyardgrass (Echinochloa crus-galli); assay: Test A preemergence soil spray, visual injury rating 0-100; settings: 10 days
Outline: (§2)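 Directed preemergence spray onto seeded soil or postemergence spray onto 2-10 cm plants (loam plus sand); compound carried in surfactant-containing non-phytotoxic solvent. Injury rated by eye after 10 d greenhouse growth; 0 = no effect, 100 = complete control.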

[6] = tested on: oat, wild (wild oat, Avena fatua); assay: as above; settings: 10 days
Outline: as §2

[7] = tested on: corn (Zea mays); assay: as above; settings: 10 days
Outline: as §2

[8] = tested on: blackgrass (Alopecurus myosuroides); assay: as above; settings: 10 days
Outline: as §2

[9] = tested on: soybean (Glycine max); assay: as above; settings: 10 days
Outline: as §2

[10] = tested on: kochia (Bassia scoparia); assay: as above; settings: 10 days
Outline: as §2

[11] = tested on: palmer (palmer amaranth, palmer pigweed, Amaranthus palmeri); assay: as above; settings: 10 days
Outline: as §2

[12] = tested on: wheat (Triticum aestivum); assay: as above; settings: 10 days
Outline: as §2

[13] = tested on: ryegrass, Italian (italian ryegrass, Lolium multiflorum); assay: as above; settings: 10 days
Outline: as §2

[14] = tested on: green foxtail (Setaria viridis); assay: as above; settings: 10 days
Outline: as §2

[15] = tested on: ragweed (common ragweed, Ambrosia artemisiifolia); assay: as above; settings: 10 days
Outline: as §2

[16] = tested on: barnyardgrass (Echinochloa crus-galli); assay: Test A postemergence application, visual injury rating 0-100
Outline: as §2

[17] = tested on: oat, wild (wild oat, Avena fatua); assay: as above
Outline: as §2

[18] = tested on: corn (Zea mays); assay: as above
Outline: as §2

[19] = tested on: blackgrass (Alopecurus myosuroides); assay: as above
Outline: as §2

[20] = tested on: soybean (Glycine max); assay: as above
Outline: as §2

[21] = tested on: kochia (Bassia scoparia); assay: as above
Outline: as §2

[22] = tested on: palmer (palmer amaranth, palmer pigweed, Amaranthus palmeri); assay: as above
Outline: as §2

[23] = tested on: wheat (Triticum aestivum); assay: as above
Outline: as §2

[24] = tested on: galium (catchweed bedstraw, Galium aparine); assay: as above
Outline: as §2

[25] = tested on: ryegrass, Italian (italian ryegrass, Lolium multiflorum); assay: as above
Outline: as §2

[26] = tested on: horseweed (Erigeron canadensis); assay: as above
Outline: as §2

[27] = tested on: green foxtail (Setaria viridis); assay: as above
Outline: as §2

[28] = tested on: ragweed (common ragweed, Ambrosia artemisiifolia); assay: as above
Outline: as §2

[29] = 62 g ai/ha, 0 = no effect, 100 = complete control
[30] = 62 g ai/ha, postemergence, 10 days, 0 = no effect, 100 = complete control
[31] = Postemergence, 16 g ai/ha, greenhouse 10 days, 0 no effect, 100 complete control

COC(=O)C1C=CC(NC(=O)C2(C)CN(c3cc(Cl)c(F)c(Cl)c3)C(=O)O2)C1 (stereo not shown) [Compound 150] was tested, and the “Plant response rating, Barnyardgrass (0 to 100 scale, 0 is no effect and 100 is complete control)” value [1] was 65, the “Plant response rating, Ducksalad (0 to 100 scale, 0 is no effect and 100 is complete control)” value [2] was 85 and the “Plant response rating, Sedge, Umbrella (0 to 100 scale, 0 is no effect and 100 is complete control)” value [3] was 75. For the same compound, the “Plant response rating, Rice (0 to 100 scale, 0 is no effect and 100 is complete control)” value [4] was 30, the “Barnyardgrass plant response rating” value ([5]; 16 g ai/ha, 0 to 100 scale) was 0 and the “Barnyardgrass plant response rating (0-100)” value [5, 29] was 90. For the same compound, the “Oat, Wild plant response rating” value ([6]; 16 g ai/ha, 0 to 100 scale) was 0, the “Oat, Wild plant response rating (0-100)” value [6, 29] was 10 and the “Corn plant response rating” value ([7]; 16 g ai/ha, 0 to 100 scale) was 0. For the same compound, the “Corn plant response rating (0-100)” value [7, 29] was 70, the “Blackgrass plant response rating” value ([8]; 16 g ai/ha, 0 to 100 scale) was 0 and the “Blackgrass plant response rating (0-100)” value [8, 29] was 50. The “Soybean plant response rating” value ([9]; 16 g ai/ha, 0 to 100 scale) was 0, the “Soybean plant response rating (0-100)” value [9, 29] was 0 and the “Kochia plant response rating” value ([10]; 16 g ai/ha, 0 to 100 scale) was 20. The “Kochia plant response rating (0-100)” value [10, 29] was 90, the “Pigweed, Palmer plant response rating” value ([11]; 16 g ai/ha, 0 to 100 scale) was 10 and the “Pigweed, Palmer plant response rating (0-100)” value [11, 29] was 90. The “Wheat plant response rating” value ([12]; 16 g ai/ha, 0 to 100 scale) was 0, the “Wheat plant response rating (0-100)” value [12, 29] was 80 and the “Ryegrass, Italian plant response rating” value ([13]; 16 g ai/ha, 0 to 100 scale) was 10. For the same compound, the “Ryegrass, Italian plant response rating (0-100)” value [13, 29] was 50, the “Foxtail, Green plant response rating” value ([14]; 16 g ai/ha, 0 to 100 scale) was 0 and the “Foxtail, Green plant response rating (0-100)” value [14, 29] was 90. The “Ragweed plant response rating” value ([15]; 16 g ai/ha, 0 to 100 scale) was 0, the “Ragweed plant response rating (0-100)” value [15, 29] was 0 and the “Barnyardgrass plant response rating (0-100)” value [16, 30] was 100. The “Barnyardgrass plant response rating (0 to 100 scale)” value [16, 31] was 90, the “Oat, Wild plant response rating (0-100)” value [17, 30] was 90 and the “Oat, Wild plant response rating (0 to 100 scale)” value [17, 31] was 60. The “Corn plant response rating (0-100)” value [18, 30] was 100, the “Corn plant response rating (0 to 100 scale)” value [18, 31] was 100 and the “Blackgrass plant response rating (0-100)” value [19, 30] was 90. For the same compound, the “Blackgrass plant response rating (0 to 100 scale)” value [19, 31] was 80, the “Soybean plant response rating (0-100)” value [20, 30] was 70 and the “Soybean plant response rating (0 to 100 scale)” value [20, 31] was 60. For the same compound, the “Kochia plant response rating (0-100)” value [21, 30] was 70, the “Kochia plant response rating (0 to 100 scale)” value [21, 31] was 20 and the “Pigweed, Palmer plant response rating (0-100)” value [22, 30] was 60. The “Pigweed, Palmer plant response rating (0 to 100 scale)” value [22, 31] was 40, the “Wheat plant response rating (0-100)” value [23, 30] was 90 and the “Wheat plant response rating (0 to 100 scale)” value [23, 31] was 70. The “Galium plant response rating (0-100)” value [24, 30] was 80, the “Galium plant response rating (0 to 100 scale)” value [24, 31] was 70 and the “Ryegrass, Italian plant response rating (0-100)” value [25, 30] was 80. For the same compound, the “Ryegrass, Italian plant response rating (0 to 100 scale)” value [25, 31] was 50, the “Horseweed plant response rating (0-100)” value [26, 30] was 60 and the “Horseweed plant response rating (0 to 100 scale)” value [26, 31] was 20. The “Foxtail, Green plant response rating (0-100)” value [27, 30] was 90, the “Foxtail, Green plant response rating (0 to 100 scale)” value [27, 31] was 20 and the “Ragweed plant response rating (0-100)” value [28, 30] was 50. The “Ragweed plant response rating (0 to 100 scale)” value [28, 31] was 0.
